The results in this text go back to ChEMBL document CHEMBL1148617, “Design, synthesis, and structure-activity relationships of 1-,3-,8-, and 9-substituted-9-deazaxanthines at the human A2B adenosine receptor” (J Med Chem, 2006).

Experiment [1] concerns the target T1, Adenosine receptor A2b (Homo sapiens) (UniProt P29275).
T1 sequence (whole entry): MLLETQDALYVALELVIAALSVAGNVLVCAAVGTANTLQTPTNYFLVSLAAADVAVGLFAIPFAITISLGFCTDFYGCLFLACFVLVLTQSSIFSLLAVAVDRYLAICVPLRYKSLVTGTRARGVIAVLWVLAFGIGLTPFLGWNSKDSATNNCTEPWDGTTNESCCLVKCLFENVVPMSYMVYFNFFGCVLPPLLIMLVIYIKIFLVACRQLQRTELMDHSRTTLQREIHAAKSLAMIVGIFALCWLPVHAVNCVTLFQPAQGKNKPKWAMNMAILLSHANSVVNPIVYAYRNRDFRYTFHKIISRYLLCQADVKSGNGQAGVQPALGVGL
The experiment can be described thus: Displacement of [3H]DPCPX from recombinant human adenosine A2B receptor expressed in HEK293 cells at 0.1 uM. The class given is cell-based. Background: Loss of bound radioactivity is the signal in a displacement assay; it reports binding, not function.

Experiment [2] concerns the target T2, Adenosine receptor A2a (Homo sapiens, UniProt P29274).
Description: Binding affinity to recombinant human adenosine A2A receptor
The target of a further experiment is T3, Adenosine receptor A2b (Homo sapiens, UniProt P29275).
T3 sequence (P29275 whole entry): T1 sequence (whole entry)

In experiment [3] the target is T1, Adenosine receptor A2b (Homo sapiens). The experiment can be described thus: Displacement of [3H]DPCPX from recombinant human adenosine A2B receptor expressed in HEK293 cells at 0.01 uM.
The target in experiment [4] is T2, Adenosine receptor A2a. The experiment can be described thus: Displacement of [3H]ZM-241385 from recombinant human adenosine A2A receptor expressed in HeLa cells at 0.1 uM.

T2 sequence (P29274 whole entry): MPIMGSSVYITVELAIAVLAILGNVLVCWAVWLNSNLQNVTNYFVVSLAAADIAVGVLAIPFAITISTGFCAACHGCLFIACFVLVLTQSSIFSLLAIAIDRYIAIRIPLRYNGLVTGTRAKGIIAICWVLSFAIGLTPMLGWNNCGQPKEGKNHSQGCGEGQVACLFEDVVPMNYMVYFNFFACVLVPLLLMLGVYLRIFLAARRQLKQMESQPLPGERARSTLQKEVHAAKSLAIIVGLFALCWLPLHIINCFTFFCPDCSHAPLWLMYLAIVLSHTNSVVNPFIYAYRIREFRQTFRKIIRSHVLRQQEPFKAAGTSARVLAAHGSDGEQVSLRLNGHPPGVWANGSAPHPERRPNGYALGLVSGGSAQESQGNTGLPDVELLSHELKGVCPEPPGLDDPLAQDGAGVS

Broadly, the inhibition is the percentage by which the read-out fell short of the control. Broadly, the Ki is the dissociation constant of the complex between target and ligand, obtained from inhibition or displacement. As to `CCCn1c(=O)c2[nH]c(-c3ccc(OCC(=O)c4c(NC(=O)O)[nH]c(=O)n(C)c4=O)cc3)cc2n(CCC)c1=O`, the inhibition in experiment [1] was 66%; in experiment [3], 21%; at Adenosine receptor A2a [4] it was 76%. The Ki on Adenosine receptor A2a [2] was 15.8 nM; on Adenosine receptor A2b, 21.9 nM.
On to `CCCn1c(=O)c2[nH]c(-c3ccc(OC(CC)C(=O)Nc4ccc(F)cc4)cc3)cc2n(CCC)c1=O` (stereo not given), for which the results for the inhibition (in experiment [1]; in experiment [3]; at Adenosine receptor A2a [4]) were 100%, 68% and 88%, respectively. In addition, the Ki at Adenosine receptor A2a [2] is 19.1 nM; at Adenosine receptor A2b it was 4.79 nM.
As for `Cn1c(=O)c2[nH]c(-c3ccc(OCC(=O)NCc4ccccc4)cc3)cc2n(C)c1=O`, the results for the inhibition (in experiment [1]; in experiment [3]; at Adenosine receptor A2a [4]) were 66%, 12% and 25%, respectively. The Ki is 182 nM at Adenosine receptor A2a [2] and 51.3 nM on Adenosine receptor A2b.
For the molecule `CCCn1c(=O)c2[nH]c(-c3ccc(OC(C)C(=O)Nc4ccccc4)cc3)cc2n(CCC)c1=O` (stereo not given), the inhibition came out at 92% in experiment [1], 50% in experiment [3] and 42% at Adenosine receptor A2a [4]. Moreover, the inhibition constant Ki is 105 nM at Adenosine receptor A2a [2] and 5.13 nM at Adenosine receptor A2b.
`CC(Oc1ccc(-c2cc3c([nH]2)c(=O)n(C)c(=O)n3C)cc1)C(=O)Nc1ccc(Br)cc1` (stereo not given): the inhibition came out at 93% in experiment [1], 89% in experiment [3] and 77% on Adenosine receptor A2a [4]. Further, the Ki on Adenosine receptor A2a [2] is 26.9 nM; at Adenosine receptor A2b it was 1.55 nM.
Turning to `CCCn1c(=O)c2[nH]c(-c3ccc(OCC(=O)Nc4ccc(Cl)cc4)cc3)c(Cl)c2n(CCC)c1=O`, the values for the inhibition (in experiment [1]; in experiment [3]; on Adenosine receptor A2a [4]) were 80%, 17% and 28%, respectively. The figures for the Ki on Adenosine receptor A2a [2] and at Adenosine receptor A2b were 89.1 nM and 22.9 nM, respectively.
Take `CCCn1c(=O)c2[nH]c(-c3ccc(OCC(=O)Nc4ccc(C)cn4)cc3)cc2n(CCC)c1=O`: the values for the inhibition (in experiment [1]; in experiment [3]; on Adenosine receptor A2a [4]) were 85%, 40% and 29%, respectively. Moreover, the inhibitory constant (Ki) on Adenosine receptor A2a [2] was 275 nM; at Adenosine receptor A2b, 12.6 nM.
As to `CCCn1c(=O)c2[nH]c(-c3ccc(OCC(=O)Nc4ccc(OC)nc4)cc3)cc2n(C)c1=O`, the inhibition in experiment [1] turned out to be 99%; in experiment [3], 57%; at Adenosine receptor A2a [4], 30%. Besides, the results for the Ki at Adenosine receptor A2a [2] and on Adenosine receptor A2b were 132 nM and 3.16 nM, respectively.
Regarding `CCCn1c(=O)c2[nH]c(-c3ccc(OCC(=O)Nc4ccc(CC#N)cc4)cc3)cc2n(CCC)c1=O`, the inhibition in experiment [1] is 86%; in experiment [3] it was 34%; on Adenosine receptor A2a [4], 46%. For the same molecule, the Ki at Adenosine receptor A2a [2] was 39.8 nM; on Adenosine receptor A2b it was 11.2 nM.
Regarding `Cn1c(=O)c2[nH]c(-c3ccc(OCC(=O)NC4CCc5ccccc54)cc3)cc2n(C)c1=O` (stereo not given), the inhibition amounted to 74% in experiment [1], 30% in experiment [3] and 20% on Adenosine receptor A2a [4]. Further, the inhibition constant (Ki) was 214 nM at Adenosine receptor A2a [2] and 22.4 nM on Adenosine receptor A2b.
In the case of `CC(NC(=O)COc1ccc(-c2cc3c([nH]2)c(=O)n(C)c(=O)n3C)cc1)c1ccccc1` (stereo not given), the inhibition in experiment [1] was 63%; in experiment [3], 20%; on Adenosine receptor A2a [4], 13%. For the same molecule, the Ki was 245 nM at Adenosine receptor A2a [2] and 27.5 nM on Adenosine receptor A2b.
Take `Cn1c(=O)c2[nH]c(-c3cccc(OCC(=O)Nc4ccccc4)c3)cc2n(C)c1=O`: the inhibition was found to be 35% in experiment [1], 10% in experiment [3] and 32% at Adenosine receptor A2a [4]. The figures for the Ki at Adenosine receptor A2a [2] and at Adenosine receptor A2b were 204 nM and 166 nM, respectively.
As for `CCCn1c(=O)c2[nH]c(-c3ccc(OC(C)C(=O)Nc4ccc(F)cc4)cc3)cc2n(CCC)c1=O` (stereo not given), the inhibition is 88% in experiment [1], 62% in experiment [3] and 51% on Adenosine receptor A2a [4]. Further, the inhibitory constant (Ki) was 58.9 nM at Adenosine receptor A2a [2] and 3.24 nM at Adenosine receptor A2b.
`CCCn1c(=O)c2[nH]c(-c3ccc(OCC(=O)Nc4ccccc4)cc3)c(Cl)c2n(CCC)c1=O`: the figures for the inhibition (in experiment [1]; in experiment [3]; at Adenosine receptor A2a [4]) were 57%, 11% and 37%, respectively. The Ki at Adenosine receptor A2a [2] is 74.1 nM; at Adenosine receptor A2b it was 37.2 nM.
